Reference: patent US20040105861A1, “Use of factor XIIIa inhibitors to treat atherosclerosis” (SmithKline Beecham Corporation, priority 1997, published 2004)

Target: purified human Factor XIIIa (Homo sapiens, UniProt P00488)
Settings: 10 mM EDTA added in the presence of Factor XIIIa 30 U/ml; fibrinogen 100 μg/ml, Lp(a) 500 μg/ml, 37° C., 30 minutes to 6 hours
Description: To determine if Factor XIIIa crosslinks Lp(a) with fibrinogen, Factor XIIIa was incubated with Lp(a) and fibrinogen in solution and then analyzed for Lp(a)-fibrinogen crosslinking over a time course ranging from 30 minutes to 6 hours. Briefly, purified human fibrinogen (Calbiochem, San Diego, Calif.), at a final concentration of 100 μg/ml, was incubated with purified human Lp(a) (Enzyme Research Laboratories, South Bend, Ind.) at a final concentration of 500 μg/ml, in the presence of purified human Factor XIIIa (Enzyme Research Laboratories, South Bend, Ind.) at 30 U/ml. As controls, Factor XIIIa was either omitted from the reaction or 10 mM EDTA was added in the presence of Factor XIIIa to inhibit Factor XIIIa activity. The reactions were conducted at 37° C. in a buffer of 40 mM Tris, 0.15 M NaCl, 5 mM dithiolthreitol, and 10 mM CaC12, at pH 8.3. Factor XIII was preactivated to Factor XIIIa immediately before each experiment by incubating Factor XIII with thrombin at 3 U/ml in 40 mM Tris and 0. 15 M NaCl, at pH 8.3 for 1 hour at room temperature. The activation procedure was stopped by adding hirudin at 100 U/ml (Sigma) to inhibit the thrombin. […]
To identify the presence of Lp(a) within the immunoprecipitated complexes, samples were analyzed by western blot using an antibody to Lp(a). […]

Chain of purified human Factor XIIIa (P00488 39-732 limits assumed): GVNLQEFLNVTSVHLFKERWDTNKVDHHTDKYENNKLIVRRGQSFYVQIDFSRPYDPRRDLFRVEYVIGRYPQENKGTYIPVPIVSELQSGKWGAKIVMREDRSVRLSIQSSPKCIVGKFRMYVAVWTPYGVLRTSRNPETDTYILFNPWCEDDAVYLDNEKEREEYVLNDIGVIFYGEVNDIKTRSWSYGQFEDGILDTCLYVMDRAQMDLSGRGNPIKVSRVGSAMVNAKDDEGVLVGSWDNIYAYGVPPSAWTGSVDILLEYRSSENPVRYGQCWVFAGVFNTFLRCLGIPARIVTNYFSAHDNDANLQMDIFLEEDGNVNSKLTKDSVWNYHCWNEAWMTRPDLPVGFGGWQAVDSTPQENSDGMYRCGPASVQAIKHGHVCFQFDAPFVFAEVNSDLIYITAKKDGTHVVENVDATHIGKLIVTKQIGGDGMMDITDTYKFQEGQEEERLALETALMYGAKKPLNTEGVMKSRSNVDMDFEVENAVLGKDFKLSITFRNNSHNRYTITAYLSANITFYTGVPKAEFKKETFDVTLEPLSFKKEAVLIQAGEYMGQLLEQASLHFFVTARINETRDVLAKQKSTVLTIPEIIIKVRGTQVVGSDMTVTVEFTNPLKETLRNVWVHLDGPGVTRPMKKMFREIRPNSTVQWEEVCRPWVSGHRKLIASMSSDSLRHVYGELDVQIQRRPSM

## O=C(O)CN(CCN(CC(=O)O)CC(=O)O)CC(=O)O [EDTA]
  Lp(a) crosslinked with fibrinogen (Lp(a) in anti-fibrinogen immunoprecipitated material, western blot): Lp(a) was not incorporated in the immunoprecipitated material
